Tests used:
human recombinant sEH = biological target: T1, human recombinant sEH (Homo sapiens, UniProt P34913); experiment: Cell-free sEH activity assay (fluorescence-based, PHOME substrate); assay type: biochemical; details: for sEH activity % of control at 1 μM / sEH activity % of control at 10 μM: residual activity; for inhibition at 10 µM: inhibition as stated in text
T1 construct: made in house; host or cells: Sf9 cells infected with recombinant baculovirus (from Dr. Bruce Hammock, UC Davis)
T1 sequence (P34913 1-555): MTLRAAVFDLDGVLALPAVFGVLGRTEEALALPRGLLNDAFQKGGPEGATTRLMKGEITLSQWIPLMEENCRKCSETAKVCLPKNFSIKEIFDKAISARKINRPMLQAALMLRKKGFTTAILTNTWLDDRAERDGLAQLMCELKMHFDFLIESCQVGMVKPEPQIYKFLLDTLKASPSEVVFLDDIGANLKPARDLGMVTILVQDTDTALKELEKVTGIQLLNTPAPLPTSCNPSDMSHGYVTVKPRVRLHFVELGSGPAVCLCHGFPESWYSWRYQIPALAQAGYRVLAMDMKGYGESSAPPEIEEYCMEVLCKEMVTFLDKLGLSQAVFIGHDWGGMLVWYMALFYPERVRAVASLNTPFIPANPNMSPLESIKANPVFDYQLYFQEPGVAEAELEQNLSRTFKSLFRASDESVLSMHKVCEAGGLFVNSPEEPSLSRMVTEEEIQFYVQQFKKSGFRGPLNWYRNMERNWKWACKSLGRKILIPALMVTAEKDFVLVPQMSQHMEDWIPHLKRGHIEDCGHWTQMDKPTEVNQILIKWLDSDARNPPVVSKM
Description: Inspired by the reported crystallographic screening studies,[12],[13],[15] a series of aryl amide (12, 15–21) or urea (31–39) derivatives with a benzoxazolone head group were synthesized and assessed for inhibition of human recombinant sEH in a cell-free activity assay[27] (Tables 1 and 2). […] Consequently, compounds in which the amide group is attached to the benzoxazolone ring through NH could outperform their direct reversed analogues by more favorable interactions in the central pocket of sEH. In addition, simple methylation of the benzoxazolone NH in 17–18 engendered noticeable differences in sEH inhibition relative to the unmethylated counterparts 15–16, implying that a free NH with H-bond donor property at this location is also important for the observed potency. Subsequently, the positioning of the amide group at the 5-position of the benzoxazolone ring also retained the inhibitory activity.
Human recombinant sEH was expressed and purified as published before.[31] Briefly, Sf9 cells were infected with a recombinant baculovirus (obtained from Dr. Bruce Hammock, University of California, Davis, CA). Following 72 h of transfection, the cells were centrifuged and then sonicated (3 × 10 s at 4 °C) in lysis buffer comprising glycerol (10%), NaHPO4 (50 mM, pH 8), leupeptin (10 μg/mL), NaCl (300 mM), phenylmethanesulfonyl fluoride (1 mM), EDTA (1 mM), and soybean trypsin inhibitor (60 μg/mL). After centrifugation at 100,000g (60 min, 4 °C), the obtained supernatants were subjected to a benzylthio-sepharose-affinity chromatography and eluted with 4-fluorochalcone oxide in PBS containing 1 mM DTT and 1 mM EDTA for purification of sEH. The enzyme was dialyzed and concentrated (Millipore Amicon-Ultra-15 centrifugal filter), and the solution was further assayed for total protein content by a protein detection kit (Bio-Rad Laboratories, Munich, Germany). The epoxide hydrolase activity was measured using a fluorescence-based assay, as reported before.[27] In brief, sEH was diluted in Tris buffer (25 mM, pH 7) containing BSA (0.1 mg/mL) to a suitable enzyme concentration and pretreated with test compounds or 0.1% DMSO as vehicle for 10 min at room temperature. To start the reaction, 50 μM of the PHOME substrate (3-phenyl-cyano(6-methoxy-2-naphthalenyl)methyl ester-2-oxiraneacetic acid), a nonfluorescent compound that is enzymatically converted by sEH into fluorescent 6-methoxy-naphtaldehyde, was added at RT. The reaction was stopped by addition of ZnSO4 (200 mM) after 60 min, and fluorescence was measured (λem 465 nm, λex 330 nm) by employing a NOVOstar microplate reader (BMG LABTECH GmbH, Ortenberg, Germany). If required, the potential fluorescence of test compounds was subtracted from the readout.

[1] = mean ± SEM, n = 3, benzoxazolone-amides (Table 1)
[2] = cell-free assay, benzoxazolone-amides (Table 1)
[3] = mean ± SEM, n = 3, benzoxazolone-ureas (Table 2)
[4] = cell-free assay, mean ± SEM, n = 3, benzoxazolone-ureas (Table 2)

Row | SMILES | melting point | sEH activity % of control at 1 μM (human recombinant sEH; [1]) | sEH activity % of control at 10 μM (human recombinant sEH; [1]) | sEH inhibition (in words) (human recombinant sEH; cell-free assay) | IC50 (human recombinant sEH; [2]) [nM] | inhibition at 10 µM (human recombinant sEH) [%] | sEH activity % of control at 1 μM (human recombinant sEH; [3]) | sEH activity % of control at 10 μM (human recombinant sEH; [3]) | IC50 (human recombinant sEH; [4]) [nM]
1 | O=C(Nc1ccc(OCc2ccccc2)cc1)c1ccc2[nH]c(=O)oc2c1 [Compound 12, N-[4-(Benzyloxy)phenyl]-2-oxo-2,3-dihydro-1,3-benzoxazole-6-carboxamide] | > 300 °C | 91.0 ± 6.1 % of control | 84.4 ± 3.8 % of control | devoid of sEH inhibition | > 10000 |  |  |  | 
2 | O=C(Nc1ccc2[nH]c(=O)oc2c1)c1ccc(OCc2ccccc2)cc1 [Compound 15, 4-(Benzyloxy)-N-(2-oxo-2,3-dihydro-1,3-benzoxazol-6-yl)benzamide] | 256.6 to 259 °C | 67.8 ± 10.8 % of control | 28.9 ± 8.1 % of control |  | < 10000 | 70 |  |  | 
3 | O=C(Nc1ccc2[nH]c(=O)oc2c1)c1ccc(Oc2ccccc2)cc1 [Compound 16, N-(2-Oxo-2,3-dihydro-1,3-benzoxazol-6-yl)-4-phenoxybenzamide] | 231.8 to 233 °C | 49.8 ± 6.3 % of control | 15.2 ± 5.9 % of control |  | ~1000 | 85 |  |  | 
4 | Cn1c(=O)oc2cc(NC(=O)c3ccc(OCc4ccccc4)cc3)ccc21 [Compound 17, 4-(Benzyloxy)-N-(3-methyl-2-oxo-2,3-dihydro-1,3-benzoxazol-6-yl)benzamide] | 251.8 to 253.7 °C | 105.8 ± 15.9 % of control | 115.1 ± 4.9 % of control |  | > 10000 |  |  |  | 
5 | Cn1c(=O)oc2cc(NC(=O)c3ccc(Oc4ccccc4)cc3)ccc21 [Compound 18, N-(3-Methyl-2-oxo-2,3-dihydro-1,3-benzoxazol-6-yl)-4-phenoxybenzamide] | 229.1 to 231.1 °C | 83.7 ± 9.8 % of control | 91.5 ± 2.8 % of control |  | > 10000 |  |  |  | 
6 | O=C(Nc1ccc2oc(=O)[nH]c2c1)c1ccc(OCc2ccccc2)cc1 [Compound 20, 4-(Benzyloxy)-N-(2-oxo-2,3-dihydro-1,3-benzoxazol-5-yl)benzamide] | 260.7 to 262.8 °C | 68.2 ± 6.6 % of control | 30.0 ± 10.5 % of control |  | < 10000 |  |  |  | 
7 | O=C(Nc1ccc2oc(=O)[nH]c2c1)c1ccc(Oc2ccccc2)cc1 [Compound 21, N-(2-Oxo-2,3-dihydro-1,3-benzoxazol-5-yl)-4-phenoxybenzamide] | 231 to 233 °C | 47.4 ± 7.1 % of control | 14.4 ± 6.8 % of control |  | ~1000 |  |  |  | 
8 | O=C(NCc1ccccc1Cl)Nc1ccc2oc(=O)[nH]c2c1 [Compound 31, 1-[(2-Chlorophenyl)methyl]-3-(2-oxo-2,3-dihydro-1,3-benzoxazol-5-yl)urea] | 242.5 °C (dec.) |  |  |  |  |  | 3.1 ± 6.2 % of control | 5.8 ± 6.2 % of control | 9.9 ± 2.9
9 | O=C(NCc1ccccc1C(F)(F)F)Nc1ccc2oc(=O)[nH]c2c1 [Compound 32, 3-(2-Oxo-2,3-dihydro-1,3-benzoxazol-5-yl)-1-{[2-(trifluoromethyl)phenyl]methyl}urea] | 237.8 °C (dec.) |  |  |  |  |  | 7.1 ± 5.8 % of control | 4.7 ± 8.0 % of control | 2 ± 0.42
10 | O=C(NCc1cccc(Cl)c1)Nc1ccc2oc(=O)[nH]c2c1 [Compound 34, 1-[(3-Chlorophenyl)methyl]-3-(2-oxo-2,3-dihydro-1,3-benzoxazol-5-yl)urea] | 244.5 °C (dec.) |  |  |  |  |  | 18.6 ± 5.1 % of control | 7.5 ± 3.4 % of control | 80 ± 23
11 | O=C(NCc1ccc(F)cc1)Nc1ccc2oc(=O)[nH]c2c1 [Compound 35, 1-[(4-Fluorophenyl)methyl]-3-(2-oxo-2,3-dihydro-1,3-benzoxazol-5-yl)urea] | 249.3 °C (dec.) |  |  |  |  |  | 62.8 ± 3.3 % of control | 5.2 ± 3.6 % of control | 570 ± 15
12 | O=C(NCc1ccc(Cl)cc1)Nc1ccc2oc(=O)[nH]c2c1 [Compound 36, 1-[(4-Chlorophenyl)methyl]-3-(2-oxo-2,3-dihydro-1,3-benzoxazol-5-yl)urea] | 251 °C (dec.) |  |  |  |  |  | 18.6 ± 2.6 % of control | 1.9 ± 2.4 % of control | 120 ± 20
13 | O=C(NCc1ccc(C(F)(F)F)cc1)Nc1ccc2oc(=O)[nH]c2c1 [Compound 37, 3-(2-Oxo-2,3-dihydro-1,3-benzoxazol-5-yl)-1-{[4-(trifluoromethyl)phenyl]methyl}urea] | 213.6 °C (dec.) |  |  |  |  |  | 12.3 ± 2.5 % of control | 1.1 ± 1.8 % of control | 53 ± 8
14 | O=C(NCc1cccc(F)c1F)Nc1ccc2oc(=O)[nH]c2c1 [Compound 39, 1-[(2,3-Difluorophenyl)methyl]-3-(2-oxo-2,3-dihydro-1,3-benzoxazol-5-yl)urea] | 259.9 °C (dec.) |  |  |  |  |  | 14.2 ± 2.7 % of control | 0.8 ± 2.0 % of control | 33 ± 10

Source: paper PMC9850727, “Benzoxazolone-5-Urea Derivatives as Human Soluble Epoxide Hydrolase (sEH) Inhibitors” (ACS Omega, 2023)
